# Patent publication US8901295B2 (Institut National de la Sante et de la Recherche Medicale …, priority 2009, dated 2014)
# Target: Cyclophilin B (CypB) (Homo sapiens (Human), UniProt P23284)
# Test: Cyclophilin PPIase enzymatic assay (chymotrypsin coupled), CypB
# Format: biochemical
# Conditions: not given
# Experimental: Cyclophilin A, B protein carrying a hexahistidine tag (His-Tag) at the C-terminus, were expressed in Escherichia coli and purified. Briefly, cultures of C41(DE3) cells were grown at 37° C. for ˜1 h until the culture reached an optical density of 0.6 at 600 nm, and induced with 1 mM isopropyl β-D-thiogalactoside for 4 h at 37° C. or overnight at 22° C. for cylophilin A and cyclophilin B, respectively. Cell pellets (1 L) were resuspended in a lysis buffer (20 mM NaH2PO4 (pH 7.8), 300 mM NaCl, 7 mM β-mercaptoethanol, 1 mg/ml lysozyme, 0.1 U/μl Desoxyribonuclease and complete protease inhibitor tablets (Roche)). The sonicated cell lysates were clarified by centrifugation at 10 000 g for 45 min at 4° C., chromatographed on a Ni-NTA column and washed with buffer: (20 mM NaH2PO4 (pH7.8), 300 mM NaCl, 50 mM imidazole, 7 mM β-mercaptoethanol, 10% glycerol). The bound protein was eluted in 1 ml fractions with buffer: (20 mM NaH2PO4 (pH7.8), 300 mM NaCl, 250 mM imidazole, 7 mM β-mercaptoethanol, 10% glycerol) and monitored by the Bradford colorimetric assay. The purity of each cyclophilin was determined by Coomassie-stained SDS-PAGE analysis.
# The reaction was initiated by adding 20 μL of 3.2 mM peptide substrate (Suc-Ala-Ala-cis-Pro-Phe-pNA) in LiCl/TFE solution with rapid inversion. […] The final concentration of LiCl in the assay was 20 mM; TFE was present at a concentration of 4% (v/v). Absorbance readings were collected every 1 s by spectrophotometer. The inhibition assays of compounds were performed in the same manner as mentioned above. A 5 μL aliquot of the compounds in DMSO was added to the cyclophilin solution in the assay buffer. The assay was started by the addition of the substrate. Cyclosporine A was used as control in all measurement. The percentage inhibition of cyclophilin PPiase activity were calculated from slopes and values obtained represent an average of at least two independent measurements.
# Chain of Cyclophilin B (CypB) (P23284 34-216): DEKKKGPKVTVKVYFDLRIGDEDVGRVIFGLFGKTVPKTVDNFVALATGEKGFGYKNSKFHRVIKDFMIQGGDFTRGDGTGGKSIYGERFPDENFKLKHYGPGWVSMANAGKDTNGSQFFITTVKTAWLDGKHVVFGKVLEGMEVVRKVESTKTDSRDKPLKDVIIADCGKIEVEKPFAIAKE
row,Compound,inhibition at 100 µM
1,"CCOC(=O)CNC(=O)NCc1ccc(F)cc1 [Compound F513, ethyl 2-(3-(4-fluorobenzyl)ureido)acetate]",23.3%
2,"CCOC(=O)CNC(=O)NCc1cccc(C(F)(F)F)c1 [Compound F514, ethyl 2-(3-(3-trifluoromethylbenzyl)ureido)acetate]",19.5%
3,"CCOC(=O)CNC(=O)NCCNc1ccccc1 [Compound F515, ethyl 2-(3-(2-(phenylamino)ethyl)ureido)acetate]",18.2%
4,"CCOC(=O)CNC(=O)NCCc1ccc(O)cc1 [Compound F517, ethyl 2-(3-(4-hydroxyphenylethyl)ureido)acetate]",20%
5,"CCOC(=O)CNC(=O)NCc1cc(Cl)cc(Cl)c1 [Compound F520, ethyl 2-(3-(3,5-dichlorobenzyl)ureido)acetate]",18.9%
6,"CCOC(=O)CNC(=O)NCc1cccc2c1OCCO2 [Compound F525, ethyl 2-(3-((2,3-dihydrobenzo[b][1,4]dioxin-5-yl)methyl)ureido)acetate]",21.6%
7,"CCOC(=O)CNC(=O)NCc1cc(C)on1 [Compound F526, ethyl 2-(3-((5-methylisoxazol-3-yl)methyl)ureido)acetate]",21.2%
8,"CCOC(=O)CNC(=O)NCc1ccc(N)nc1 [Compound F536, ethyl 2-(3-((6-aminopyridin-3-yl)methyl)ureido)acetate]",47.6%
9,"COC(=O)[C@H]1CCCN1C(=O)CNC(=O)NCc1ccc(N)cc1 [Compound F558, (R)-methyl 1-(2-(3-(4-aminobenzyl)ureido)acetyl)pyrrolidine-2-carboxylate]",25.9%
10,"Nc1ccc(CNC(=O)NCC(=O)N2CCC(O)CC2)cc1 [Compound F561, 1-(4-aminobenzyl)-3-(2-(4-hydroxy-piperidin-1-yl)-2-oxoethyl)urea]",15.1%
11,"COc1cccc(CNC(=O)CNC(=O)NCc2ccc(N)cc2)c1 [Compound F563, 2-(3-(4-aminobenzyl)ureido)-N-3-methoxybenzylacetamide]",16.4%
12,"CCOC(=O)CNC(=O)NCc1c(F)cccc1NC(C)=O [Compound F565, ethyl 2-(3-(2-acetamido-6-fluorobenzyl)ureido)acetate]",34.5%
13,"CCOC(=O)CNC(=S)NCc1ccc(N)nc1 [Compound F569, ethyl 2-(3-((6-aminopyridin-3-yl)methyl)thioureido)acetate]",17.1%
14,"CCOC(=O)CNC(=O)NCc1ccc(O)cc1O [Compound F572, ethyl 2-(3-(2,4-dihydroxybenzyl)ureido)acetate]",27.6%
15,"CCOC(=O)CNC(=O)NCc1ccc(O)cc1 [Compound F576, ethyl 2-(3-(4-hydroxybenzyl)ureido)acetate]",18.4%

# Same assay, conditions: activity test at 100 μM on CypB
row,Compound,Inhibition (%)
1,2-(3-(4-aminobenzyl)ureido)-N-2-phenyl-ethyl-N-methylacetamide [Compound F551],20.8%
2,"CCOC(=O)CNC(=O)NCc1cccc2ccccc12 [Compound F490, ethyl 2-(3-((napht-1-yl)methyl)ureido)acetate]",33.1%
3,CCOC(=O)CNC(=O)NCc1cccc(-c2ncccn2)c1 [Compound F524],15.4%
4,CCOC(=O)CNC(=O)NCc1ccccc1-c1ccco1 [Compound F528],38.9%
5,Nc1ccc(CNC(=O)NCC(=O)NCc2cccc(CN3CCOCC3)c2)cc1 [Compound F559],21.9%
6,"Nc1ccc(CNC(=O)NCC(=O)NCc2cccc(-n3cncn3)c2)cc1 [Compound F562, 2-(3-(4-aminobenzyl)ureido)-N-(3-(1H,1,2,4-triazol-1-yl)benzyl)acetamide]",28.0%
7,"CCOC(=O)CNC(=O)NCc1ccc(N)c2ccccc12 [Compound F577, ethyl 2-(3-((4-aminonapht-1-yl)methyl)ureido)acetate]",47.3%
8,"Nc1ccc(CNC(=O)NCC(=O)N2CCCO2)cn1 [Compound F585, 1-((6-aminopyridin-3-yl)methyl-3-(2-isoxazolidin-2-yl)-2-oxoethyl)urea]",35.0%
